Values quoted from earlier work as cited in patent US20260207569A1, “LPA1 ANTAGONISTS FOR TREATING INTERSTITIAL LUNG DISEASE” (Bristol-Myers Squibb Company, priority 2022, published 2026).

Columns and labels:
patients with PPF = conditions: 52-week study period; cited from earlier work
patients with IPF = conditions: cited from earlier work

SMILES | Progression of lung fibrosis (annual rate of decline in FVC) vs placebo (patients with PPF) | Effect on decline in lung function (patients with IPF)
COC(=O)c1ccc2c(c1)NC(=O)/C2=C(\Nc1ccc(N(C)C(=O)CN2CCN(C)CC2)cc1)c1ccccc1 [nintedanib] | slower progression of lung fibrosis than those who received placebo | significantly reduce the decline in lung function
Cc1ccc(=O)n(-c2ccccc2)c1 [pirfenidone] |  | significantly reduce the decline in lung function
